From ChEMBL document CHEMBL3351881, “Chemical constituents isolated from Disporum viridescens leaves and their inhibitory effect on nitric oxide production in BV2 microglial cells” (Bioorg Med Chem Lett, 2014)
Active and inactive are the calls of the source. The rule behind the calls is not given here.

Assays:
BV-2 [1] = assay: Neuroprotective effect in […] cells assessed as LPS-induced nitric oxide production at 10 to 100 uM incubated for 1 hr prior to LPS challenge measured after 24 hrs by Griess assay; type: functional, cell-based; settings: Mus musculus
BV-2 [2] = assay: Inhibition of LPS-induced iNOS protein expression in […] cells at 0.1 uM by Western blotting analysis; type: functional, cell-based
BV-2 [3] = assay: Inhibition of LPS-induced COX-2 protein expression in […] cells at 0.1 uM by Western blotting analysis; type: functional, cell-based
BV-2 [4] = assay: Inhibition of LPS-induced ERK phosphorylation in […] cells at 0.1 uM by Western blotting analysis; type: cell-based
[5] = target: T1, NF-kappa-B inhibitor alpha (Homo sapiens) (UniProt P25963); assay: Inhibition of LPS-induced IkB-alpha degradation in […] cells at 0.1 uM by Western blotting analysis; type: cell-based; settings: BV-2
T1 sequence (whole entry): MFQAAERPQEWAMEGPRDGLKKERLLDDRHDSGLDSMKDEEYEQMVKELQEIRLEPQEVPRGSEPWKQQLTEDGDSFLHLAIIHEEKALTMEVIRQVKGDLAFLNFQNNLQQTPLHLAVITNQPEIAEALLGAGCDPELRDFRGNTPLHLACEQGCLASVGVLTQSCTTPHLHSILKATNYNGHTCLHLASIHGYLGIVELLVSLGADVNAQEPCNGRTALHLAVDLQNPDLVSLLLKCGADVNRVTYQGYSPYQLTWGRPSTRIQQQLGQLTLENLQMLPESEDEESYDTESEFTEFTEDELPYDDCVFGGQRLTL

[6] = system: c-Jun N-terminal kinase, JNK (Mus musculus); assay: Inhibition of LPS-induced JNK phosphorylation in mouse BV2 cells at 0.1 uM by Western blotting analysis; settings: BV-2
[7] = system: MAP kinase p38 (Mus musculus); assay: Inhibition of LPS-induced p38 phosphorylation in mouse BV2 cells at 0.1 uM by Western blotting analysis; settings: BV-2

Compound	Activity (BV-2 [1])	inhibition (BV-2 [2])	inhibition (BV-2 [3])	inhibition (BV-2 [4])	inhibition [5]	inhibition [6]	inhibition [7]
COc1cc([C@H]2OC[C@@]3(O[C@@H]4O[C@H](CO)[C@@H](O)[C@H](O)[C@H]4O)C2CO[C@@H]3c2ccc(O)c(OC)c2)ccc1O (some centres not stated)	Active	–	–	–	–	–	–
COc1cc([C@H]2Oc3c(O)cc(CCCO)cc3[C@@H]2CO)ccc1O	Active	Active	Active	–	–	–	–
COc1cc([C@H]2O[C@H](O)C3C2CO[C@@H]3c2ccc(O)c(OC)c2)ccc1O (some centres not stated)	Active	Active	Active	Active	inactive	Active	Active
COc1cc([C@H]2Oc3c(OC)cc(CCCO)cc3[C@@H]2CO[C@@H]2O[C@H](CO)[C@@H](O)[C@H](O)[C@H]2O)ccc1O	Active	–	–	–	–	–	–
